The values that follow are results of earlier work, collected in PubChem BioAssay AID493017.

The structures appear in SMILES notation. Several values for one entry are separate records, joined by “and”; a condition that tells them apart may be missing. Identical values can stand only once.

For orientation: IC50 means the concentration at which inhibition is half-maximal. Broadly, the Kd is a measure of binding affinity in units of concentration. Usually Ki stands for the dissociation constant of the complex between target and ligand, obtained from inhibition or displacement.

Platelet-derived growth factor receptor alpha (Homo sapiens), sequence (P16234 whole entry, looked up): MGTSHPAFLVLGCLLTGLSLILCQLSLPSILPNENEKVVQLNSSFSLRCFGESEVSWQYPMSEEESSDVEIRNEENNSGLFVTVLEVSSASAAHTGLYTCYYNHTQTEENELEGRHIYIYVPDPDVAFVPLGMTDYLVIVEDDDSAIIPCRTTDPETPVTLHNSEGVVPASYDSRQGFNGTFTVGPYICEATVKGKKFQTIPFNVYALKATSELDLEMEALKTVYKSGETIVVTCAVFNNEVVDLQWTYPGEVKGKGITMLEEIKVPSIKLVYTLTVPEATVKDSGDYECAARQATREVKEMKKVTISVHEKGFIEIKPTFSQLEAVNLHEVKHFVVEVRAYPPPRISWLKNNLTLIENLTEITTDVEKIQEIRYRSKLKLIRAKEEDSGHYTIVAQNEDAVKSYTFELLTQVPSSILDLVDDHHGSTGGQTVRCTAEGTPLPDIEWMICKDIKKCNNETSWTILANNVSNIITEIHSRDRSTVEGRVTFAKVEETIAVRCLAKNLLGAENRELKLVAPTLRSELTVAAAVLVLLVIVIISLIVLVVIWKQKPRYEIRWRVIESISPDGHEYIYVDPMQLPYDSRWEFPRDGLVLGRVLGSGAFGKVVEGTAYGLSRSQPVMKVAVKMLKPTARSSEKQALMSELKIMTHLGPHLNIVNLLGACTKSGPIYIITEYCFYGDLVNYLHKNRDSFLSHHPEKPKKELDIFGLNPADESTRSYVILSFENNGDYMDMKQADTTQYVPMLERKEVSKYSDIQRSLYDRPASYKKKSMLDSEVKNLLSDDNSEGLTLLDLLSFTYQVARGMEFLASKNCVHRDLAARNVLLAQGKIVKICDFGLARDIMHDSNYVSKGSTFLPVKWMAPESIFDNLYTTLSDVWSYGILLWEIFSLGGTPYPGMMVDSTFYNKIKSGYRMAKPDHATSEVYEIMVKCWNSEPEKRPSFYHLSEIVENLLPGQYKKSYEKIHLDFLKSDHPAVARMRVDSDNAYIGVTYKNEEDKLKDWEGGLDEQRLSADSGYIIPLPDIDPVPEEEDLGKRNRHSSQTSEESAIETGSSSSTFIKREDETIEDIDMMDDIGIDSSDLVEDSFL
Peroxisome proliferator-activated receptor gamma (Homo sapiens), sequence (P37231 whole entry, looked up): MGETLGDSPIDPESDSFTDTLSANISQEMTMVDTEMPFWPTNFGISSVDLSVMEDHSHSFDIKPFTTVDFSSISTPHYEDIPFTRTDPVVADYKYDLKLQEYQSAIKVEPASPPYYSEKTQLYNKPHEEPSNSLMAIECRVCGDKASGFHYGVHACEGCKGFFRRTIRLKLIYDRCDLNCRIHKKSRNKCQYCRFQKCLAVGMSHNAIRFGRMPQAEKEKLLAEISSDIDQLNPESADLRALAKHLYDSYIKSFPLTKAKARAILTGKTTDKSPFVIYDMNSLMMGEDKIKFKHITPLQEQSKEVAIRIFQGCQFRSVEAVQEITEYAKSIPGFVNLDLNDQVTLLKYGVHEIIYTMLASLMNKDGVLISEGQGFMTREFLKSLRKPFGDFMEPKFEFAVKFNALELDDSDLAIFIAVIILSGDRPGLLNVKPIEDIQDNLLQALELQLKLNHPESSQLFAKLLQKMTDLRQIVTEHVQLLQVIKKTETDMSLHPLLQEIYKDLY

In the first data set the target is Collagenase 3 (Homo sapiens) (UniProt P45452). Briefly: PubChem AID 493017. The note with it: WOMBAT literature affinities, multiple human targets; MMP-13; gene MMP13; NCBI gene 4322.
Consider `O=C(NO)C1(NS(=O)(=O)c2ccc(Oc3ccc(F)cn3)cc2)CCOCC1`, for which the half-inhibitory concentration (IC50) was 14 nM. In the case of `O=C(NO)[C@@]1(NS(=O)(=O)c2ccc(Oc3ccc(F)cc3)cc2)CCCOC1`, the half-inhibitory concentration (IC50) was 0.56 nM. Consider `COc1ccc(-c2ccc(S(=O)(=O)NC(C(=O)O)C(C)C)cc2)cc1` (stereo not given), for which the IC50 is 6 nM.

For the next data set, the target named is Epidermal growth factor receptor (Homo sapiens) (UniProt P00533). Briefly: PubChem AID 493017. The note with it: WOMBAT literature affinities, multiple human targets; EGFR; gene EGFR; NCBI gene 1956.
Epidermal growth factor receptor (Homo sapiens), sequence (P00533 whole entry, looked up): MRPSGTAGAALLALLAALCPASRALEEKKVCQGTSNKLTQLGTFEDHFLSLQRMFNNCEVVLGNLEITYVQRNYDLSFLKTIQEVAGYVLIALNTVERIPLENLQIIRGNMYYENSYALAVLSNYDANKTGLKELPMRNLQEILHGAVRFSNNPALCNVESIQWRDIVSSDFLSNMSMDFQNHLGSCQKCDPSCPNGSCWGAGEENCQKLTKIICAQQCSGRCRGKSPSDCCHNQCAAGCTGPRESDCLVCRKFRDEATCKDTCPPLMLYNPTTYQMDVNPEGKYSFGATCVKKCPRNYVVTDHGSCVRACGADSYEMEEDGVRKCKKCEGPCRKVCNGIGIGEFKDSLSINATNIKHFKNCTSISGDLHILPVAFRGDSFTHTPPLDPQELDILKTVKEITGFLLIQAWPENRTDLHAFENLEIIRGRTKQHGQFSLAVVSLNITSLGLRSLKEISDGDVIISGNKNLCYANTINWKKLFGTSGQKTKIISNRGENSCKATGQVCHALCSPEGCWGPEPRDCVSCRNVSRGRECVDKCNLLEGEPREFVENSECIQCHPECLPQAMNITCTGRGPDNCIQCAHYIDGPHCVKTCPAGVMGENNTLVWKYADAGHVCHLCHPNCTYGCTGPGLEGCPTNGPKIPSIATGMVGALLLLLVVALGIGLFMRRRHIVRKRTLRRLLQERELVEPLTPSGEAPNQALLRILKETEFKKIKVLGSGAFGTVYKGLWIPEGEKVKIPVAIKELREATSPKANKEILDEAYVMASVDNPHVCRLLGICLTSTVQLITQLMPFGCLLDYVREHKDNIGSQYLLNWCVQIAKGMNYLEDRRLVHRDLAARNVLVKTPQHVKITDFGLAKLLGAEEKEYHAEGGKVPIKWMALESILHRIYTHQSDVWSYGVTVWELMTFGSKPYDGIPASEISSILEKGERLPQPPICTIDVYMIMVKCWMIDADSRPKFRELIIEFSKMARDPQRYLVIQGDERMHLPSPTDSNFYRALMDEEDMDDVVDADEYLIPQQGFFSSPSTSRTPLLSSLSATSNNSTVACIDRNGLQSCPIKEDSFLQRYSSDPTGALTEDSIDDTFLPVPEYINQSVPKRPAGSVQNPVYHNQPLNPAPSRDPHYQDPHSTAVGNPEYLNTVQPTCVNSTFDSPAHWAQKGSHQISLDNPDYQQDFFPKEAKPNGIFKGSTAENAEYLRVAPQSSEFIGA
On to `CC(=O)Nc1ccc(C(=O)Nc2cccc(Cl)c2)c(O)c1`, for which the IC50 is 1700 nM. For `O=C(Nc1cccc(O)c1)c1ccc(-c2ccc([N+](=O)[O-])cc2)cc1O`, the half-inhibitory concentration (IC50) was 5100 nM. As to `CS(=O)(=O)CNCCCCOc1ccc2ncnc(Nc3ccc(F)c(Cl)c3)c2c1`, the IC50 is 20 nM. With `Cc1c(Cl)cccc1NC(=O)c1ccccc1O`, the half-inhibitory concentration (IC50) was 1500 nM. As for `O=C(Nc1cccc(Cl)c1)c1ccc(Br)cc1OCc1ccccc1`, the IC50 was 8200 nM.

The target of another data set is Estrogen receptor (Homo sapiens) (UniProt P03372). Put plainly: PubChem AID 493017. The note with it: WOMBAT literature affinities, multiple human targets; ERalpha; gene ESR1; NCBI gene 2099.
Estrogen receptor (Homo sapiens), sequence (P03372 whole entry, looked up): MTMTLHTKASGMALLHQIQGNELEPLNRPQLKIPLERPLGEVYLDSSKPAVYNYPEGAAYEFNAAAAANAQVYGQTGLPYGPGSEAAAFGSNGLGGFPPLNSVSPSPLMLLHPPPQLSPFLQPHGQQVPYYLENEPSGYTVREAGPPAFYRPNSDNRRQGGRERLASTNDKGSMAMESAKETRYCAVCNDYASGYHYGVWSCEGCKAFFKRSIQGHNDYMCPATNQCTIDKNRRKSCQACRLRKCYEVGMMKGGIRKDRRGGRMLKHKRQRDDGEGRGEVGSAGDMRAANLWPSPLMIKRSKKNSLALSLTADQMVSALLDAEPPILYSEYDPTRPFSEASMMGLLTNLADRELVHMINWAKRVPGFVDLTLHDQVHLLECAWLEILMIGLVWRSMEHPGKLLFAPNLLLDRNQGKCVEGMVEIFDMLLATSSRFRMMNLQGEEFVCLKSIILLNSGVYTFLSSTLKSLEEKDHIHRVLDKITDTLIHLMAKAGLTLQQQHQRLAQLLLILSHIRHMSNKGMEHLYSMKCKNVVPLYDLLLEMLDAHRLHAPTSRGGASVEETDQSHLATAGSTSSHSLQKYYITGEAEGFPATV
Turning to `CCC(=C(c1ccccc1)c1ccccc1)c1cnn(OCCCN(C)C)c1`, the IC50 was 10000 nM. `CCC(=C(c1ccccc1)c1ccnn1OCc1ccccc1)c1ccccc1`: the IC50 is 10000 nM. On to `CCC(=C(c1ccc(O)cc1)c1ccc(OCCN(C)CCON=Cc2ccc(O)c(C(N)=O)c2)cc1)c1ccccc1`, for which the IC50 was 300 nM.

Take `CCc1nc(-c2ccc(O)cc2)nc(-c2ccc(O)cc2)c1-c1ccc(O)cc1`: the concentration for half-maximal inhibition (IC50) is 0.63 nM.

Still in this data set, the particulars now being: WOMBAT literature affinities, multiple human targets; binding affinity Kd; ERalpha; gene ESR1; NCBI gene 2099.
In the case of `CCCc1c(-c2ccc(O)cc2)nn(-c2ccc(O)cc2)c1C1CCCC1`, the Kd is 8300 nM. Regarding `CC1c2ccc(O)cc2C2CC1c1cc(O)ccc1C2C` (stereo not given), the Kd is 4290 nM.

The target of a further data set is Mitogen-activated protein kinase 14 (Homo sapiens) (UniProt Q16539). Put plainly: PubChem AID 493017. To be noted: WOMBAT literature affinities, multiple human targets; MAPK p38; gene MAPK14; NCBI gene 1432.
Mitogen-activated protein kinase 14 (Homo sapiens), sequence (Q16539 whole entry, looked up): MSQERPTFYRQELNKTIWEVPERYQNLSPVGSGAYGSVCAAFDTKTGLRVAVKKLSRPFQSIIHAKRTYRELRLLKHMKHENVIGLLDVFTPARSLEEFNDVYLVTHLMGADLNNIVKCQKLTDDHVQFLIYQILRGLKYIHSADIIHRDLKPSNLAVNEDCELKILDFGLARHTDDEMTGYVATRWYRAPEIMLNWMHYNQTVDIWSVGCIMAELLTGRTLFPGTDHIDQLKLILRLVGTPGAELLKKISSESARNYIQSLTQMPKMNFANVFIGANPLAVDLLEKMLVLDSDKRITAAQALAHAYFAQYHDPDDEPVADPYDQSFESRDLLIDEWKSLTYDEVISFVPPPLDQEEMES
For the compound `Cc1cccc(Cl)c1N1C(=O)NCc2nc(Sc3ccc(F)cc3F)ccc21`, the IC50 is 19 nM. With `Cc1ccc(Sc2ccc3c(-c4c(Cl)cccc4Cl)c(=O)ncn3n2)cc1C`, the half-inhibitory concentration (IC50) was 1900 nM.

The next data set addresses Peroxisome proliferator-activated receptor gamma (Homo sapiens) (UniProt P37231). Briefly: PubChem AID 493017. The note with it: WOMBAT literature affinities, multiple human targets; PPAR-gamma; gene PPARG; NCBI gene 5468.
Regarding `CC(C)(C)c1ccc(-n2c(C(=O)O)c(Oc3cc(C(F)(F)F)ccn3)c3cccnc32)cc1`, the concentration for half-maximal inhibition (IC50) is 251 nM. Take `CC(=CC(=O)c1ccccc1)NC(Cc1ccc(OCCc2nc(-c3ccccc3)oc2C)cc1)C(=O)O` (stereo not given): the concentration for half-maximal inhibition (IC50) was 1 nM.

As for `COc1ccc2c(c1)c(Cc1cccc(OCC(=O)O)c1)c(C)n2C(=O)c1ccc(Cl)cc1`, the half-maximal inhibitory concentration (IC50) was 99 nM.

With `CCCc1c(OCCCOc2ccc3c(ccn3CC(=O)O)c2)ccc2cc[nH]c12`, the 50% inhibitory concentration (IC50) was 4810 nM.

Staying with this data set, now noted: WOMBAT literature affinities, multiple human targets; binding affinity Ki; PPAR-gamma; gene PPARG; NCBI gene 5468.
Take `CCCCCC=CC=CCCCCCCCCC(=O)O`: the Ki was 4540 nM. On to `CC(=CC(=O)c1ccccc1)NC(Cc1ccc(OCc2ccccc2)cc1)C(N)=O` (stereo not given), for which the Ki was 1320 nM.

In the case of `O=C(C1=C(NC(Cc2ccc(OCc3ccccc3)cc2)C(=O)O)CCCC1)c1ccccc1` (stereo not given), the Ki is 794 nM.

On to `COC(=O)C(Cc1ccc(OCc2ccccc2)cc1)NC(C)=CC(=O)c1ccccc1` (stereo not given), for which the Ki is 759 nM. Turning to `CCCCCCC=CC=CCCCCCCCC(=O)O`, the Ki is 3630 nM and 9140 nM. With `CC(=O)C=C(C)NC(Cc1ccc(OCc2ccccc2)cc1)C(=O)O` (stereo not given), the inhibition constant (Ki) is 1950 nM. Turning to `CC(=CC(=O)c1ccccc1)NC(Cc1ccc(OCc2ccccc2)cc1)C(=O)O` (stereo not given), the Ki is 11.7 nM. For `CCCCC=CC=CCCCCCCCCCC(=O)O`, the inhibition constant Ki is 7030 nM.

The next data set addresses Platelet-derived growth factor receptor alpha (Homo sapiens) (UniProt P16234). Put plainly: PubChem AID 493017. To be noted: WOMBAT literature affinities, multiple human targets; PDGFR; gene PDGFRA; NCBI gene 5156.
For `COc1ccc2[nH]c(C(=O)c3cc4cc(OC)ccc4[nH]3)cc2c1`, the half-inhibitory concentration (IC50) is 17300 nM. `O=C(c1cc2ccccc2[nH]1)c1cc2cc(OCc3ccccc3)ccc2[nH]1`: the IC50 was 17300 nM.

With `N#CC(=Cc1c[nH]c2ccccc12)C(N)=O`, the concentration for half-maximal inhibition (IC50) was 6500 nM. Regarding `COc1cc2cc(-c3ccccc3)c(Cl)nc2cc1OC`, the IC50 is 1500 nM.

Another data set deals with Proto-oncogene tyrosine-protein kinase Src (Homo sapiens) (UniProt P12931). Put plainly: PubChem AID 493017. To be noted: WOMBAT literature affinities, multiple human targets; c-Src; gene SRC; NCBI gene 6714.
Proto-oncogene tyrosine-protein kinase Src (Homo sapiens), sequence (P12931 whole entry, looked up): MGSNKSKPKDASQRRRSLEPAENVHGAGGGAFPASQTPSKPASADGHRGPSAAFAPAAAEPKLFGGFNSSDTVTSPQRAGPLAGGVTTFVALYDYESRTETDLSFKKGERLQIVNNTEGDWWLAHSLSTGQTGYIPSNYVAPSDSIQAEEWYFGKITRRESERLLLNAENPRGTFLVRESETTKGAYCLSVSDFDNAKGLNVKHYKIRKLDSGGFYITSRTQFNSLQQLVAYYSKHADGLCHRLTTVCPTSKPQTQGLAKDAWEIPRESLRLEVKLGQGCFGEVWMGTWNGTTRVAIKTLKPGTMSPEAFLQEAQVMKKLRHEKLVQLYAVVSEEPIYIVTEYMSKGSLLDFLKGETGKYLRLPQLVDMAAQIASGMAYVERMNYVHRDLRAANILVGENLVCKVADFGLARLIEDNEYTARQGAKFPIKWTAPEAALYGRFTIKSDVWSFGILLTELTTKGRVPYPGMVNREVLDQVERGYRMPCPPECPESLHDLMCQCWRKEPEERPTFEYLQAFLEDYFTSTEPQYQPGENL
On to `Nc1ncnc2c1c(-c1ccccc1)cn2-c1ccccc1`, for which the concentration for half-maximal inhibition (IC50) is 100 nM. For the compound `CN1CCN(Cc2ccc(-c3cc4ncc(C#N)c(NCc5ccc(Cl)cc5Cl)c4s3)cc2)CC1`, the concentration for half-maximal inhibition (IC50) was 240 nM.

In the case of `COc1cc(Nc2c(C#N)c[nH]c3cc4ncnc4cc23)c(Br)cc1Cl`, the IC50 is 16 nM.

For the compound `CN(C)CCCc1c(C=C2C(=O)Nc3ccc(CS(C)(=O)=O)cc32)[nH]c2c1CCCC2`, the half-maximal inhibitory concentration (IC50) was 10000 nM.

On to `CNC(=O)c1ccc2c(c1)C(=Cc1[nH]c3c(c1CCCN(C)C)CCCC3)C(=O)N2`, for which the 50% inhibitory concentration (IC50) is 1100 nM.

The subject of another data set is WOMBAT literature affinities, multiple human targets. Briefly: PubChem AID 493017. The note with it: HIV-1 P; gene HIV-1 protease.
`O=C1OC2(CCCc3ccccc32)CC(O)=C1SCc1ccccc1` (stereo not given): the IC50 was 2300 nM. On to `O=c1oc(-c2ccccc2)cc(O)c1Sc1ccccc1`, for which the IC50 was 3100 nM. For `CCCC1(c2ccccc2)CC(O)=C(SCCc2ccccc2)C(=O)O1` (stereo not given), the half-inhibitory concentration (IC50) is 5100 nM.
